Patent publication US7144920B2, “Polyamine analogs that activate antizyme frameshifting” (MediQuest Therapeutics, Inc., priority 2002, dated 2006)
Where “and” joins values, the source holds several entries; their conditions need not be identical. Equal values may be shown once. Read-outs that look alike come from different tables or passages of the source.

Assays:
ODC = settings: read-out: Ki for ODC inhibition; cited from earlier work
[1] = tested on: antizyme frameshifting (inducible 0 to +1 AZ1 construct) in HEK-293 cells; assay: dual luciferase reporter assay for antizyme frameshifting; type: cell-based; settings: for frameshift-rescue factor (FRF): % RF multiplied by inverse of rescue coefficient, HEK-293; for frameshift-rescue factor (FRF) / induction of antizyme frameshifting, comparison in words: 25 μM; for EC50: HEK-293 cells grown in 2.5 mM DFMO, 50% of maximum percent frameshifting (plateau, FIG. 3), read-out: EC50 for induction of frameshifting; for induction of antizyme frameshifting, comparison in words: HEK-293 (FIG. 1, FIG. 2)
Method: Frameshifting can be detected using a dual luciferase reporter system that measures the efficiency of antizyme translational frameshifting (Grentzmann, G. et. al., RNA 4:479–486 (1998); Howard, M. et. al., Genes to Cells 6:931–941 (2001)). Frameshifting efficiency is determined by comparing the ratio of firefly luciferase to renilla luciferase activity in cells transfected in parallel using a control vector containing a constitutive +1 frameshift (AZ-IF) that measures the in-frame translation efficiency and a vector containing the inducible 0 to +1 frameshift (AZ1) construct. In these constructs, the renilla luciferase gene is upstream of the firefly luciferase gene which are separated by a short cloning sequence containing the portions of antizyme 1 and 2 known to contain the mRNA signals for polyamine stimulated frameshifting. Using a 96-well format, this assay system gives a quantitative measure of the efficiency of the polyamines, polyamine analogs and other compounds to induce frameshifting in a cell-based bioassay. Cells must be pretreated with α-difluoromethylornithine (DFMO), an irreversible inhibitor of ODC, prior to screening to decrease the basal antizyme frameshifting levels and increase the sensitivity to polyamine or compound-mediated stimulation of antizyme frameshifting.
FIG. 1 is a tabular representation of a large number of polyamines A-S (25 μM) that were tested for their ability to induce antizyme frameshifting using the dual luciferase reporter assay. The percent relative frameshifting value (% RF) gives a comparison of the ability of a compound to induce frameshifting compared to 25 μM spermidine. The % RF was calculated as follows. The background percent frameshifting activity determined from the 2.5 mM DFMO negative control was subtracted from the percent frameshifting activity for all compounds including the spermidine control. The background corrected frameshifting activity of each compound was then divided by the background corrected frameshifting activity induced by 25 μM spermidine and multiplied by 100. The compounds were also evaluated for their ability to rescue cells from DFMO-induced growth inhibition by determining their rescue coefficient. The rescue coefficient represents the ratio of the cell growth, as measured by O.D., in the presence of the test compound with 2.5 mM DFMO to the growth in the presence of 2.5 mM DFMO alone. The frameshift-rescue factor (FRF) is a useful factor to compare the effectiveness of the various antizyme frameshifters by taking into account their potency for inducing frameshifting and ability to rescue cells from DFMO-induced growth inhibition. The FRF was calculated by multipling the % RF value by the inverse of the rescue coefficient.
Values represent percent frameshifting following transient transfection of an AZ1-IF control and the inducible 0 to +1 AZ1 plasmid construct into HEK-293 cells grown in the presence of 2.5 mM DFMO. The compounds were added to the cells after transfection and incubated overnight before assaying the next day. Each value represents triplicate measurements.
A series of compounds are screened for their ability to induce frameshifting using the dual luciferase reporter assay. HEK-293 cells are plated in white sided, clear-bottomed 96-well assay plates at 15,000 cells per well in 100 μL of medium (DMEM supplemented with 10% fetal bovine serum (Gibco), 1% penicillin, streptomycin and L-glutamine) containing 2.5 mM DFMO. The cells are incubated for 2-days at 37° C. in an atmosphere of 5% CO2. The medium is removed and the cells are then transfected with lipofectamine reagent (LifeTechnologies) using serum free DMEM. All cells are transfected overnight with 100 ng of the appropriate plasmid DNA and 0.3 μL lipofectamine in 50 μL of serum free DMEM containing 2.5 mM DFMO. The next day, 40 μL of medium is added per well containing 3.1 mM DFMO, 2.5 mM aminoguanidine and 25% FBS. […]

HEK-293 cells [2] = assay: rescue from DFMO-induced growth inhibition; type: cell-based; settings: 25 μM compound, 2.5 mM DFMO, 6 days
Method: FIG. 5 gives a comparison of the ability of antizyme frameshifters (25 μM) to rescue cells from 2.5 mM DFMO-induced growth inhibition compared to 25 μM spermidine (SPD) in a 6-day assay in HEK-293 cells. The rescue coefficient represents the ratio of cell growth, as measured by O.D., of the test compound with 2.5 mM DFMO versus 2.5 mM DFMO alone.
HEK-293 cells are plated in 96-well assay plates at 1,000 cells per well in 100 μL of medium (DMEM supplemented with 10% fetal bovine serum (Gibco), 1% penicillin, streptomycin and L-glutamine). The cells are incubated overnight at 37° C. in an atmosphere of 5% CO2. Compounds are added the next day to a final concentration of 25 μM along with 1 mM aminoguanidine (inhibits serum amine oxidase) and 2.5 mM DFMO in a final volume of 200 μL medium. The positive control contained 25 μM spermidine. The cells are allowed to incubate for 6 days before cell growth is measured by MTS/PMS dye assay (Cell Titer 96 Aqueous Non-Radioactive Cell Proliferation Assay, Promega). The rescue coefficients in FIG. 1 and FIG. 5 are expressed as the ratio of the O.D. ((compound+2.5 mM DFMO)/O.D. (2.5 mM DFMO alone)). Therefore, DFMO alone has a value of one. […] If the value is less than one, then the compound is growth inhibitory. If the value is 0, the compound is cytotoxic.

MDA-MB-231 cells = assay: growth inhibition, MDA-MB-231; type: cell-based; settings: Homo sapiens; MDA-MB-231 cells (data not shown)
Method: (§1) Cells are plated in 96-well plates such that they would be in log growth for the duration of the assay. The day after plating, the polyamine analogs are added to the cells, and growth, if any, permitted to continue for six days in the presence of 1 mM AG and 1 μM SPD when appropriate. At the end of six days, cell growth is measured by MTS/PMS dye assay (Cell Titer 96 Aqueous Non-Radioactive Cell Proliferation Assay; Promega, Madison, Wis.). IC50 refers to the concentration of the polyamine analog that results in 50% of maximum cell growth inhibition.

prostate PC-3 cells = assay: growth inhibition, PC-3; type: cell-based; settings: Homo sapiens; prostate PC-3 cells (data not shown)
Method: as §1

antizyme frameshifting = settings: cited from earlier work
[3] = tested on: mouse kidney proximal tubule (MCT) cell; settings: MCT cells; cited from earlier work
HEK-293 cells [4] = assay: cells; type: cell-based; settings: for IC50: read-out: IC50 growth inhibition
Method: Cell number was determined by MTS/PMS assay from triplicate wells.
as §1

HEK-293 cells [5] = assay: depletion of intracellular polyamine levels (HPLC) and cell growth; type: cell-based
Method: FIG. 6 is a graph showing the effect of a 6-day incubation of compound A on HEK-293 cellular polyamine levels and cell growth. All flasks received 1 mM aminoguanidine. Cells were washed, counted, lysed in perchloric acid, dansylated and polyamine levels determined by HPLC. Each value represents the average of triplicate values with the error bars representing standard deviation.
FIG. 7 illustrates the effect of extracellular compound A on the intracellular concentration of compound A in HEK-293 cells as determined by HPLC. Cells were prepared as in FIG. 6. Peak area was normalized by dividing the peak area of the compound divided by the peak area of the internal standard, diaminoheptane. Values represent at least triplicate measurements with the error bars representing standard deviation.
Compound A is further evaluated to determine if it depletes intracellular polyamine levels in HEK-293 cells in a dose-dependent fashion (FIG. 6). HEK-293 cells are plated in 75 cm^2 flasks at 300,000 cells/mL to insure they would be in log growth for the duration of the experiment. After overnight incubation at 37° C. in an atmosphere of 5% CO2, compound A is added along with 1 mM aminoguanidine. The flasks are then incubated for 6 days at 37° C. in an atmosphere of 5% CO2. The cells are harvested by washing twice with ice-cold 1×PBS, trypsinized, counted, and lysed in 0.4 N perchloric acid. Diaminoheptane is used in all dansylation reactions as an internal standard. Peak area is normalized by dividing the peak area of the compound divided by the peak area of the internal standard. The HPLC method for the fluorometric detection of polyamines from the cell extracts is based on the procedure by Kabra (Kabra, P. M. et. al. J. Chromatogr. 380:19–32 (1986)).

## NC/C=C/CN [1,4-diamino-trans-2-butene]
ODC
  Ki: 2 µM

## Nc1ccc(N)cc1 [1,4-phenylenediamine]
ODC
  Ki: 46 µM

## NCCCN(CCCN)Cc1ccc(CN(CCCN)CCCN)cc1 [Compound S]
[1]; 25 μM compound, relative to 25 μM spermidine
  percent relative frameshifting (% RF): 100%
HEK-293 cells [2]
  ability to rescue cells from DFMO-induced growth inhibition: no ability to rescue

## N=C(N)NCCCCN [agmatine]
[1]
  frameshift-rescue factor (FRF): 17
MDA-MB-231 cells
  IC50: ~2000 µM
Prostate PC-3 cells
  IC50: ~5000 µM
HEK-293 cells [2]
  ability to rescue cells from DFMO-induced growth inhibition: somewhat better than either A or B in rescuing cells
Antizyme frameshifting
  concentration of maximum frameshifting efficiency: 4 mM
[3]
  concentration of maximum growth inhibition: ≤ 1 mM
HEK-293 cells [4]; Homo sapiens, HEK293, HEK-293 cells (data not shown)
  IC50: ~210 µM

## NCCCCN [putrescine, reference compound]
[1]; Homo sapiens, HEK293
  EC50: 0.95 µM

## NCCCCNCCCN [spermidine, reference compound]
[1]; Homo sapiens, HEK293
  EC50: 0.56 µM

## NCCCNCCCCNCCCN [spermine, reference compound]
[1]; Homo sapiens, HEK293
  EC50: 0.68 µM

## N-(3-aminopropyl)-xylylenediamin [Compound A]
[1]
  induction of antizyme frameshifting, comparison in words: more potent than agmatine
  frameshift-rescue factor (FRF): 120
  EC50: ~120 µM
HEK-293 cells [2]
  ability to rescue cells from DFMO-induced growth inhibition: neither compound A nor B significantly rescue cells
HEK-293 cells [4]; HEK-293, 6 days, 1 mM aminoguanidine
  IC50: ~60 µM and 60 µM
HEK-293 cells [4]; HEK-293, 6 days, with 1 μM spermidine
  compound A concentrations at which 1 μM spermidine rescued cells from growth inhibition: 3 to 100 µM
HEK-293 cells [5]; 10 μM compound A, 6 days
  cell growth decrease: 32%
  spermidine levels down by: about 90%
HEK-293 cells [5]; 30 μM compound A, 6 days
  cell growth decrease: 38.5%
HEK-293 cells [5]; 100 μM compound A, 6 days
  intracellular spermidine level: non-detectable
  spermine levels reduced by: 50%
HEK-293 cells [5]; compound A levels above 30 μM
  spermine levels, of normal: approximately 50%
HEK-293 cells [5]; lowest concentration of compound A tested, 6 days
  intracellular putrescine level: non-detectable

## N-(4-amino-1-butane-N-(3-aminopropyl-)-xylylenediamine [Compound B]
[1]
  induction of antizyme frameshifting, comparison in words: more potent than agmatine
  frameshift-rescue factor (FRF): 83
HEK-293 cells [2]
  ability to rescue cells from DFMO-induced growth inhibition: neither compound A nor B significantly rescue cells
